Test results as given in patent publication US20080026996A1, “Selective Vpac2 Receptor Reptide Agonists” (ELI LILLY AND COMPANY, priority 2004, published 2008).
Where no end group is shown, it is not given here. [ ]: non-standard residue; d: D form. The star is where a group is joined. hArg = N=C(N)NCCCC[C@H](N)C(=O)O; Nle = CCCC[C@H](N)C(=O)O; Hexanoyl = CCCCCC(=O)*; Aib = CC(C)(N)C(=O)O

Assays:
human PAC1 [1] = target: T1, human PAC1 (Homo sapiens, UniProt P41586); assay: DiscoveRx cAMP in vitro potency, CHO-PO cells transiently transfected with human PAC1 receptor; type: cell-based; parameters: expressed in transfected cells; host or cells: CHO-PO, transient (Lipofectamine); settings: cAMP generation; mean of two independent runs; read-out: Human PAC1 Receptor: DiscoveRx EC50
T1 sequence (P41586 21-468): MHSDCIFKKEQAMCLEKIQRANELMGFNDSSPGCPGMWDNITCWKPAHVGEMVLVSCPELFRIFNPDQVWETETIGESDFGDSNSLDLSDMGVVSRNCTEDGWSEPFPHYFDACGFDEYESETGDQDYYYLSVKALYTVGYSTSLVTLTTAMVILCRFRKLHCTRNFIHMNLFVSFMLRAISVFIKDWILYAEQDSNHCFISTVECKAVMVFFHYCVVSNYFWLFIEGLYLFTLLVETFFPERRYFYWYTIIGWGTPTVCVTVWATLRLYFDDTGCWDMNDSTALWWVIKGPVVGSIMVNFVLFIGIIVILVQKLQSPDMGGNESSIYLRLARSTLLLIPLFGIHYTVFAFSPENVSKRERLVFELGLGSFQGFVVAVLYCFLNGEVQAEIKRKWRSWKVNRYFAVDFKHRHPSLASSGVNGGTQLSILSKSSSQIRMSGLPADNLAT
Protocol: Also, the cells are washed twice. The cells are incubated in assay buffer plus IBMX for 15 minutes at room temperature. […] The stimuli are present for 30 minutes. Then, the assay buffer is gently removed. […] At day 3, the assay described above for the VPAC2 receptor cell line is performed.

human VPAC2 [2] = target: T2, human VPAC2 (Homo sapiens, UniProt P41587); assay: Alpha screen cAMP in vitro potency, human VPAC2 receptor; type: cell-based; settings: cAMP generation; single result from two analyses performed in a single run; read-out: Human VPAC2 Receptor: Alpha Screen EC50
T2 construct: expressed in transfected cells
T2 sequence (P41587 24-438): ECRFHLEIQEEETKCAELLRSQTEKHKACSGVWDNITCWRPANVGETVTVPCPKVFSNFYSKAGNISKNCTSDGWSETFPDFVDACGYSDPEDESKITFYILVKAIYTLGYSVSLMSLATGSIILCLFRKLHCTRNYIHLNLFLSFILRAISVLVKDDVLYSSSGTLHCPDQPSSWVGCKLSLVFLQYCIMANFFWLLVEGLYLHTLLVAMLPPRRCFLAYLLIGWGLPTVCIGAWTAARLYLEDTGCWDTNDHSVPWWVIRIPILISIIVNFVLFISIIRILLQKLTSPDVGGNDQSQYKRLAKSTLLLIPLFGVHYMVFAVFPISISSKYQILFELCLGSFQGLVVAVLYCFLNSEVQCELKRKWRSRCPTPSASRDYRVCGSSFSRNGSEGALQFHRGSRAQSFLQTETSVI
Procedure, shortened: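 Stimulated cAMP accumulation is read by AlphaScreen after 60 min exposure of 50,000 non-enzymatically harvested cells to compound, followed by lysis with donor beads.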

human VPAC2 [3] = target: T2, human VPAC2; assay: Filter binding assay, membranes of stable VPAC2 cell line, 125I-labeled VIP tracer (Table 2); settings: read-out: Human VPAC2 Receptor Binding
Procedure, shortened: (§1)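 Scintillation counting of filter-retained radioligand gave the read-out. Compounds competed with the labelled tracer (about 40000 cpm) for 2.5 μg membranes during 1 hour of shaking in HEPES pH 7.4 buffer containing 0.5% BSA.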

[4] = Rat serum stability studies (remaining active peptide by DiscoveRx cAMP on CHO-VPAC2 cells); type: in vitro ADME
Procedure, shortened: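 Rat serum, 18 h: +aprotinin aliquot at 4° C, no-aprotinin aliquot at 37° C. Then 30 min RT step, supernatant removed, 1 h shaking at 300 rpm. DiscoveRx cAMP kit on CHO-VPAC2; EC50 from cAMP data vs standards.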

human VPAC1 = target: T3, human VPAC1 (Homo sapiens, UniProt P32241); assay: Filter binding assay, membranes of cells transiently transfected with human VPAC1, 125I-labeled VIP tracer (Table 2); parameters: expressed in transfected cells; settings: read-out: Human VPAC1 Receptor Binding
T3 sequence (P32241 31-457): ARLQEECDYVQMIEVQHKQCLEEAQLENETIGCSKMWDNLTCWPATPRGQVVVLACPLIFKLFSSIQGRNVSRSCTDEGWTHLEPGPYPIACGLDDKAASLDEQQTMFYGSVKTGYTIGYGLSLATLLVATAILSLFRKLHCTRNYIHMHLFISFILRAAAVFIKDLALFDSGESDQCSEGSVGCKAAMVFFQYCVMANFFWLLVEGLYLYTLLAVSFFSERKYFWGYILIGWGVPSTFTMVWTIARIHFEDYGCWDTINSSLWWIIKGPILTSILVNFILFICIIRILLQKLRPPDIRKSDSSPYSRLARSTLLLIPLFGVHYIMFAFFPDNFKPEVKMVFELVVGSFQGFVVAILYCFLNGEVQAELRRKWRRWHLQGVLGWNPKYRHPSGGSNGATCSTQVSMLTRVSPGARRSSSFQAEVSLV
Procedure, shortened: as §1

human PAC1 [5] = target: T1, human PAC1; assay: Filter binding assay, membranes of cells transiently transfected with human PAC1, 125I-labeled PACAP-27 tracer (Table 2); parameters: expressed in transfected cells; settings: read-out: Human PAC1 Receptor Binding
Procedure, shortened: as §1

rat VPAC2 receptor = target: T4, rat VPAC2 receptor (Rattus norvegicus, UniProt P35000); assay: DiscoveRx in vitro potency, CHO-PO cells transiently transfected with rat VPAC 2 receptor DNA; type: cell-based; parameters: expressed in transfected cells; host or cells: CHO-PO, transient
T4 sequence (P35000 23-437): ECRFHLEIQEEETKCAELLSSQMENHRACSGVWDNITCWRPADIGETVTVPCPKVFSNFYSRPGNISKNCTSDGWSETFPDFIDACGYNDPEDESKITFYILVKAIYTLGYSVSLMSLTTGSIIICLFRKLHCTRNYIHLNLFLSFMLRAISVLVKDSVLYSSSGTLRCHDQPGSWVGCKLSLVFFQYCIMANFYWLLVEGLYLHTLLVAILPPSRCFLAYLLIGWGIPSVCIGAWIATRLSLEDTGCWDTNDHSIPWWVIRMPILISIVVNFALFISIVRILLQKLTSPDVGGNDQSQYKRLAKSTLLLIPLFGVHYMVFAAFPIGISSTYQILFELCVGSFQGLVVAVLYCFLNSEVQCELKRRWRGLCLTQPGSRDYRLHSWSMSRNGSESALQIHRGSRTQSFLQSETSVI
Protocol: Also, the cells are washed twice. […] The stimuli are present for 30 minutes. Then, the assay buffer is gently removed.

| Compound | EC50 (human PAC1 [1]) | EC50 (human VPAC2 [2]) | IC50 (human VPAC2 [3]) | Rat Serum Stability (estimated purity in % after 18 hours) [4] | IC50 (human VPAC1) | IC50 (human PAC1 [5]) | EC50 (rat VPAC2 receptor) |
| --- | --- | --- | --- | --- | --- | --- | --- |
| HSDFVFTDNYTRLRKQVAAKKYLQSIKNKRYGGPSSGAPPPS [Agonist P52] | > 1000 nM | – | – | – | – | – | – |
| Hexanoyl-HSDAVFTDNYTRL[hArg]KQVAAKKYLQSIKNKRYGGPSSGAPPPS [Agonist P305] | – | 0.17 nM | 0.17 nM | 0.23% | 268 nM | 171 nM | 0.04 nM |
| HSDAVFTDNYTRLRKQVAASKYLQSIKNKRYGGPSSGAPPPS [Agonist P21] | > 100 nM | 11.6 nM | 4.94 nM | – | 385 nM | – | – |
| CCCCCC(=O)N[C@@H](Cc1c[nH]cn1)C(=O)N[C@@H](CO)C(=O)N[C@@H](CC(=O)O)C(=O)N[C@@H](C)C(=O)N[C@H](C(=O)N[C@@H](Cc1ccccc1)C(=O)N[C@H](C(=O)N[C@@H](CC(=O)O)C(=O)N[C@@H](CC(N)=O)C(=O)N[C@@H](Cc1ccc(O)cc1)C(=O)N[C@H](C(=O)N[C@@H](CCCNC(=N)N)C(=O)N[C@@H](CC(C)C)C(=O)N[C@@H](CCCNC(=N)N)C(=O)N[C@@H](CCCCN)C(=O)N[C@@H](CCC(N)=O)C(=O)N[C@H](C(=O)N[C@@H](C)C(=O)N[C@@H](C)C(=O)NC(C)(C)C(=O)N[C@@H](CCCCN)C(=O)N[C@@H](Cc1ccc(O)cc1)C(=O)N[C@@H](CC(C)C)C(=O)N[C@@H](CCC(N)=O)C(=O)N[C@@H](CO)C(=O)N[C@H](C(=O)N[C@@H](CCCCN)C(=O)N[C@@H](CC(N)=O)C(=O)N[C@@H](CCCCN)C(=O)N[C@@H](CCCNC(=N)N)C(=O)N[C@@H](Cc1ccc(O)cc1)C(=O)NCC(=O)NCC(=O)N1CCC[C@H]1C(=O)N[C@@H](CO)C(=O)N[C@@H](CO)C(=O)NCC(=O)N[C@@H](C)C(=O)N1CCC[C@H]1C(=O)N1CCC[C@H]1C(=O)N1CCC[C@H]1C(=O)N[C@@H](CO)C(=O)O)[C@@H](C)CC)C(C)C)[C@@H](C)O)[C@@H](C)O)C(C)C [Agonist P169] | – | 0.14 nM | 0.26 nM | 0.40% | 240 nM | 482 nM | 0.07 nM |
| HSDAVFTDNWTRLRKQVAAKKYLQSIKNKRYGGPSSGAPPPS [Agonist P27] | > 100 nM | – | – | – | – | – | – |
| HSDTVFTDNYTRLRKQVAAKKYLQSIKNKRYGGPSSGAPPPS [Agonist P54] | > 1000 nM | – | – | – | – | – | – |
| HSDAWFTDNYTRLRKQVAAKKYLQSIKNKRYGGPSSGAPPPS [Agonist P69] | 104 nM | – | – | – | – | – | – |
| Hexanoyl-HSDAVFTDNYTRLR[Aib]Q[Nle]AA[Aib]KYLQSIKNKRYGGPSSGAPPPS [Agonist P325] | – | 0.24 nM | 0.4 nM | 13.13% | > 3000 nM | > 25000 nM | 0.04 nM |
| H-HSDAVFTDNYTRLRKQVAAKKYLQSIQNKRYGGPSSGAPPPS [Agonist P74] | 145 nM | – | – | – | – | – | – |
| Hexanoyl-HSDAVFTDNYTRLRKQVAAQKYLQSIKNKRYGGPSSGAPPPS [Agonist P150] | – | 0.18 nM | 0.25 nM | 0.21% | 444 nM | 916 nM | 0.1 nM |
| HGDAVFTDNYTRLRKQVAAKKYLQSIKNKRYGGPSSGAPPPS [Agonist P43] | 104 nM | – | – | – | – | – | – |
| Hexanoyl-HSDAVFTDNYTRLR[Aib]QLAA[Aib]KYLQSIKNKRYGGPSSGAPPPS [Agonist P291] | – | 0.36 nM | 0.45 nM | 28.09% | > 3000 nM | > 25000 nM | 0.06 nM |
| HSDAVFTDNYTRLRKQVAAKKYLQSIKNKRYGGPSSGAPPPS [Agonist P6] | > 40 nM | 3.19 nM | 2.58 nM | – | 195 nM | 334 nM | – |
| HSDAVFTDNYTRLRKQVAAKKYLQSIKNRRYGGPSSGAPPPS [Agonist P25] | 137 nM | – | 1.65 nM | – | 233 nM | – | – |
| Hexanoyl-HSDAVFTDNYTRLRKQVAAK[Aib]YLQSIKNKRYGGPSSGAPPPS [Agonist P170] | – | 0.18 nM | 0.34 nM | 0.31% | 275 nM | 200 nM | 0.15 nM |
| HSDAVFTDNYTRLRKQVAAKKYLQSIKN[hArg]RYGGPSSGAPPPS [Agonist P24] | > 100 nM | – | 1.97 nM | – | 198 nM | – | – |
| Hexanoyl-HSDAVFTDNYTRLR[Aib]QVAAKKYLQSIKNKRYGGPSSGAPPPS [Agonist P168] | – | 0.27 nM | 0.21 nM | 10.47% | 234 nM | 538 nM | 0.05 nM |
| HSDAFFTDNYTRLRKQVAAKKYLQSIKNKRYGGPSSGAPPPS [Agonist P58] | 35.6 nM | – | – | – | – | – | – |
| HLDAVFTDNYTRLRKQVAAKKYLQSIKNKRYGGPSSGAPPPS [Agonist P46] | > 1000 nM | – | – | – | – | – | – |
| HSDYVFTDNYTRLRKQVAAKKYLQSIKNKRYGGPSSGAPPPS [Agonist P51] | > 1000 nM | – | – | – | – | – | – |
| H-HSDAVFTDNYTRLRKQVAAKKYLQSIKNKRYC [Agonist P37] | 35.6 nM | – | – | – | – | – | – |
